PubChem BioAssay AID488836 (Broad Institute, 2010)
Records with an inconclusive call do not appear. Active and inactive are the calls of the source. How the calls were made is not given here.

Test system: C. albicans CaCi-2 growth with fluconazole, Alamar Blue, 48 h
Assay: PubChem AID 488836
Conditions: not given
In the case of `COC(=O)Cn1nc(-c2ccccc2)c2ccccc21`, the AC50 is reported as 1260 nM.
For `CCN(CC)C(=O)Cn1c2ccccc2c2nc3n(c(=O)c21)CCS3`, the AC50 was 2280 nM.
Work on `O=c1c2[nH]c3ccc(F)cc3c2nc2n1CCS2` yielded an AC50 of 4080 nM.
`O=C(c1ccc(Cl)cc1)N1CCN(c2ccnc3cc(Cl)ccc23)CC1` gave an AC50 of 651 nM.
For `O=C(Nc1ccc(C(F)(F)F)cc1)N1CCN(c2ccnc3cc(Cl)ccc23)CC1`, the AC50 was 1810 nM.
`O=C(c1ccccc1)N1CCN(c2ccnc3cc(Cl)ccc23)CC1` gave an AC50 of 3350 nM.
With `O=C(Cn1c2ccccc2c2nc3n(c(=O)c21)CCS3)N1CCCC1` the AC50 was 2300 nM.
`CC1CCN(C(=O)Cn2c3ccc(F)cc3c3nc4n(c(=O)c32)CCCS4)CC1` showed an AC50 of 3540 nM.
`O=C(c1csc2ccccc12)N1CCN(c2ccnc3cc(Cl)ccc23)CC1` showed an AC50 of 1680 nM.
With `Cc1ccc(C(=O)N2CCN(c3ccnc4cc(Cl)ccc34)CC2)cc1` the AC50 was 2330 nM.
With `CC1CCN(C(=O)Cn2c3ccccc3c3nc4n(c(=O)c32)CCCS4)CC1` the AC50 was > 6000 nM (inactive).
Work on `COC(=O)Cn1nc(-c2ccc(C)cc2)c2ccccc21` yielded an AC50 of 103 nM.
Work on `O=C(c1ccc(Cl)c(Cl)c1)N1CCN(c2ccnc3cc(Cl)ccc23)CC1` yielded an AC50 of 1020 nM.
With `O=C(c1cccs1)N1CCN(c2ccnc3cc(Cl)ccc23)CC1` the AC50 was 2720 nM.
In the case of `COc1ccc(NC(=O)Cn2c3ccccc3c3nc4n(c(=O)c32)CCS4)cc1`, the AC50 is reported as 4100 nM.
`O=C(c1ccc(Cl)cc1)N1CCN(c2ccc(Cl)cc2)CC1` showed an AC50 of 6130 nM.
Work on `CC1CCN(C(=O)Cn2c3ccccc3c3nc4n(c(=O)c32)CCS4)CC1` yielded an AC50 of 2940 nM.

Test system: not listed separately
Assay: PubChem AID 488836
Conditions: C. albicans CaCi-2 growth with fluconazole, Alamar Blue, 48 h; at 0.6 µM (top of the series)
In the case of `COc1ccc2c(c1)c1nc3n(c(=O)c1n2CC(=O)N1CCC(C)CC1)CCS3`, the activity change, negative = inhibition is reported as 13.2% (inactive).

Same assay, conditions: C. albicans CaCi-2 (fluconazole-resistant clinical isolate) growth with fluconazole, Alamar Blue, 48 h; at 6 µM (top of the series)
With `O=S(=O)(c1ccc(Cl)cc1)N1CCN(c2ccnc3cc(Cl)ccc23)CC1` the activity change, negative = inhibition was -15.5% (inactive).
In the case of `O=c1c2[nH]c3ccccc3c2nc2n1CCS2`, the activity change, negative = inhibition is reported as -39.9% (inactive).
With `O=C(Cn1c2ccccc2c2nc3n(c(=O)c21)CCCS3)c1ccc(F)cc1` the activity change, negative = inhibition was -14.2% (inactive).
For `Cc1nn(S(C)(=O)=O)c2ccccc12`, the activity change, negative = inhibition was -21% (inactive).
With `CCCNC(=O)Cn1nc(-c2ccccc2)c2cc(Cl)ccc21` the activity change, negative = inhibition was 38.1% (inactive).
For `CCCNC(=O)Cn1nc(-c2ccccc2)c2ccccc21`, the activity change, negative = inhibition was 12.1% (inactive).
With `CCOC(=O)c1c2ccccc2nn1Cc1ccc(Cl)cc1` the activity change, negative = inhibition was -7.34% (inactive).
With `O=C(Cn1nc(-c2ccccc2)c2ccccc21)NCc1ccc(Cl)cc1` the activity change, negative = inhibition was -18.4% (inactive).
In the case of `c1ccc(-c2n[nH]c3ccccc23)cc1`, the activity change, negative = inhibition is reported as 4.54% (inactive).
For `O=C(Cn1nc(-c2ccccc2)c2ccccc21)N1CCc2ccccc2C1`, the activity change, negative = inhibition was -26.7% (inactive).
With `COc1ccc2c(c1)c1nc3n(c(=O)c1n2CC(=O)N1CCC(Cc2ccccc2)CC1)CCS3` the activity change, negative = inhibition was -7.32% (inactive).
For `O=C(O)c1nn(Cc2ccc(Cl)cc2)c2ccccc12`, the activity change, negative = inhibition was -11.2% (inactive).
For `O=C(O)c1c2ccccc2nn1Cc1ccc(Cl)cc1`, the activity change, negative = inhibition was -8.46% (inactive).
For `COC(=O)Cn1nc(C)c2ccccc21`, the activity change, negative = inhibition was -0.315% (inactive).
In the case of `O=C(Cn1c2ccccc2c2nc3n(c(=O)c21)CCS3)NCCc1ccc(Cl)cc1`, the activity change, negative = inhibition is reported as -13.4% (inactive).
With `COC(=O)Cn1nc(-c2ccc(Cl)cc2)c2ccccc21` the activity change, negative = inhibition was -11% (inactive).
With `O=C(Cn1nc(C(=O)N2CCCCC2)c2ccccc21)N1CCOCC1` the activity change, negative = inhibition was -5.52% (inactive).
In the case of `COc1ccc(OC)c2c(C)cc(N3CCN(C(=O)c4ccc(Cl)cc4)CC3)nc12`, the activity change, negative = inhibition is reported as -2.61% (inactive).
For `O=C(Cn1nc(-c2ccccc2)c2cc(Cl)ccc21)N1CCOCC1`, the activity change, negative = inhibition was -5.03% (inactive).
With `O=C(c1ccc(Cl)cc1)N1CCN(c2cc(C(F)(F)F)nc3ccccc23)CC1` the activity change, negative = inhibition was -20% (inactive).
In the case of `CCOC(=O)c1nn(Cc2ccc(Cl)cc2)c2ccccc12`, the activity change, negative = inhibition is reported as -6.26% (inactive).
